Test results from patent US20070010671A1, “Novel quinazoline derivatives and methods of treatment related to the use thereof” (priority 2003, published 2007).

Each compound was assayed against MCH receptor (Homo sapiens, UniProt Q99705) (assay: High throughput functional screening FLIPR/FDSS6000: inhibition of MCH-evoked intracellular Ca2+ changes). Details: class by percent of control at 10^-7 M or IC50.
Type: cell-based
Method in brief: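 Fluo4 fluorescence (Ex 488 nm, Em 530 nm) tracked MCH-evoked [Ca2+]i transients over 290 s by FLIPR or FDSS. Cells carried a constitutively active, non-endogenous receptor version. Compounds were added 3 min before a 50 nM MCH challenge.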

**Q.** Which class does the source give for CN(C)c1nc(N[C@H]2CC[C@@H](NC(=S)Nc3ccc4c(c3)OCO4)CC2)nc2ccccc12 [compound 370, N-1,3-benzodioxol-5-yl-N′-(cis-4-{[4-(dimethylamino)quinazolin-2-yl]amino}cyclohexyl)thiourea] here?
**A.** 1 (Class 1: The value of percent of control at 10^−7 M was less than 40% or the value of IC50 was less than 50 nM.)

**Q.** Which class does the source give for Cc1c(Cl)cccc1NC(=S)N[C@H]1CC[C@@H](Nc2nc(N(C)C)c3ccccc3n2)CC1 [compound 371] here?
**A.** 1 (Class 1: The value of percent of control at 10^−7 M was less than 40% or the value of IC50 was less than 50 nM.)

**Q.** How did the class turn out when CN(C)c1nc(N[C@H]2CC[C@@H](NC(=S)Nc3ccc(Br)cc3OC(F)(F)F)CC2)nc2ccccc12 [compound 372, N-[4-bromo-2-(trifluoromethoxy)phenyl]-N′-(cis-4-{[4-(dimethylamino)quinazolin-2-yl]amino}cyclohexyl)thiourea] was run?
**A.** 1 (Class 1: The value of percent of control at 10^−7 M was less than 40% or the value of IC50 was less than 50 nM.)

**Q.** COc1cc(NC(=S)N[C@H]2CC[C@@H](Nc3nc(N(C)C)c4ccccc4n3)CC2)c(OC)cc1Cl [compound 373, N-(4-chloro-2,5-dimethoxyphenyl)-N′-(cis-4-{[4-(dimethylamino)quinazolin-2-yl]amino}cyclohexyl)thiourea] was tested. Which class did it give?
**A.** 1 (Class 1: The value of percent of control at 10^−7 M was less than 40% or the value of IC50 was less than 50 nM.)

**Q.** How did the class turn out when CN(C)c1nc(N[C@H]2CC[C@@H](NC(=S)NCCCCc3ccccc3)CC2)nc2ccccc12 [compound 374] was run?
**A.** 2 (Class 2: The value of percent of control at 10^−7 M was from 40% to 60% or the value of IC50 was from 50 nM to 200 nM.)

**Q.** Which class does the source give for CN(C)c1nc(N[C@H]2CC[C@@H](NC(=S)Nc3ccc(C(C)(C)C)cc3)CC2)nc2ccccc12 [compound 375] here?
**A.** 3 (Class 3: The value of percent of control at 10^−7 M was more than 60% or the value of IC50 was more than 200 nM.)

**Q.** With CN(C)c1nc(N[C@H]2CC[C@@H](NC(=S)Nc3cc(Cl)ccc3F)CC2)nc2ccccc12 [compound 376] as the compound, how does the class read?
**A.** 3 (Class 3: The value of percent of control at 10^−7 M was more than 60% or the value of IC50 was more than 200 nM.)

**Q.** How did the class turn out when CN(C)c1nc(N[C@H]2CC[C@@H](NC(=S)NCC3CC3)CC2)nc2ccccc12 [compound 379] was run?
**A.** 3 (Class 3: The value of percent of control at 10^−7 M was more than 60% or the value of IC50 was more than 200 nM.)

**Q.** With CCOC(=O)c1c(NC(=S)N[C@H]2CC[C@@H](Nc3nc(N(C)C)c4ccccc4n3)CC2)sc2c1CCCC2 [compound 380] as the compound, how does the class read?
**A.** 3 (Class 3: The value of percent of control at 10^−7 M was more than 60% or the value of IC50 was more than 200 nM.)

**Q.** How did the class turn out when COC(=O)c1scc(C)c1NC(=S)N[C@H]1CC[C@@H](Nc2nc(N(C)C)c3ccccc3n2)CC1 [compound 381] was run?
**A.** 1 (Class 1: The value of percent of control at 10^−7 M was less than 40% or the value of IC50 was less than 50 nM.)

**Q.** With COC(=O)c1sccc1NC(=S)N[C@H]1CC[C@@H](Nc2nc(N(C)C)c3ccccc3n2)CC1 [compound 382] as the compound, how does the class read?
**A.** 1 (Class 1: The value of percent of control at 10^−7 M was less than 40% or the value of IC50 was less than 50 nM.)

**Q.** How did the class turn out when CN(C)c1nc(N[C@H]2CC[C@@H](NC(=S)Nc3ccc(F)cc3Br)CC2)nc2ccccc12 [compound 383] was run?
**A.** 2 (Class 2: The value of percent of control at 10^−7 M was from 40% to 60% or the value of IC50 was from 50 nM to 200 nM.)

**Q.** Which class does the source give for CN(C)c1nc(N[C@H]2CC[C@@H](NC(=S)Nc3ccc(F)c(Cl)c3)CC2)nc2ccccc12 [compound 384] here?
**A.** 3 (Class 3: The value of percent of control at 10^−7 M was more than 60% or the value of IC50 was more than 200 nM.)

**Q.** CCCCc1ccc(NC(=S)N[C@H]2CC[C@@H](Nc3nc(N(C)C)c4ccccc4n3)CC2)c(C)c1 [compound 385] was tested. Which class did it give?
**A.** 1 (Class 1: The value of percent of control at 10^−7 M was less than 40% or the value of IC50 was less than 50 nM.)

**Q.** CN(C)c1ccc(NC(=S)N[C@H]2CC[C@@H](Nc3nc(N(C)C)c4ccccc4n3)CC2)cc1 [compound 386] was tested. Which class did it give?
**A.** 3 (Class 3: The value of percent of control at 10^−7 M was more than 60% or the value of IC50 was more than 200 nM.)

**Q.** With CCN(CC)CCCNC(=S)N[C@H]1CC[C@@H](Nc2nc(N(C)C)c3ccccc3n2)CC1 [compound 387] as the compound, how does the class read?
**A.** 3 (Class 3: The value of percent of control at 10^−7 M was more than 60% or the value of IC50 was more than 200 nM.)

**Q.** With CN(C)c1nc(N[C@H]2CC[C@@H](NC(=S)NCCN3CCOCC3)CC2)nc2ccccc12 [compound 388] as the compound, how does the class read?
**A.** 3 (Class 3: The value of percent of control at 10^−7 M was more than 60% or the value of IC50 was more than 200 nM.)

**Q.** Which class does the source give for CN(C)c1nc(N[C@H]2CC[C@@H](NC(=S)Nc3ccc(N(C)C)c4ccccc34)CC2)nc2ccccc12 [compound 389, N-[4-(dimethylamino)-1-naphthyl]-N′-(cis-4-{[4-(dimethylamino)quinazolin-2-yl]amino}cyclohexyl)thiourea] here?
**A.** 1 (Class 1: The value of percent of control at 10^−7 M was less than 40% or the value of IC50 was less than 50 nM.)

**Q.** For CN(C)c1nc(N[C@H]2CC[C@@H](NC(=S)Nc3cccnc3)CC2)nc2ccccc12 [compound 390], which class is on record?
**A.** 3 (Class 3: The value of percent of control at 10^−7 M was more than 60% or the value of IC50 was more than 200 nM.)

**Q.** With CN(C)c1ccc(/N=N/c2ccc(NC(=S)N[C@H]3CC[C@@H](Nc4nc(N(C)C)c5ccccc5n4)CC3)cc2)cc1 [compound 391] as the compound, how does the class read?
**A.** 3 (Class 3: The value of percent of control at 10^−7 M was more than 60% or the value of IC50 was more than 200 nM.)

**Q.** With CN(C)c1nc(N[C@H]2CC[C@@H](NC(=S)NCCCN3CCOCC3)CC2)nc2ccccc12 [compound 392] as the compound, how does the class read?
**A.** 3 (Class 3: The value of percent of control at 10^−7 M was more than 60% or the value of IC50 was more than 200 nM.)

**Q.** Which class does the source give for CCN(CC)c1ccc(NC(=S)N[C@H]2CC[C@@H](Nc3nc(N(C)C)c4ccccc4n3)CC2)cc1 [compound 393] here?
**A.** 3 (Class 3: The value of percent of control at 10^−7 M was more than 60% or the value of IC50 was more than 200 nM.)

**Q.** Which class does the source give for CN(C)c1nc(N[C@H]2CC[C@@H](NC(=S)Nc3ccc(/N=N/c4ccccc4)cc3)CC2)nc2ccccc12 [compound 394] here?
**A.** 3 (Class 3: The value of percent of control at 10^−7 M was more than 60% or the value of IC50 was more than 200 nM.)

**Q.** For CN(C)c1nc(N[C@H]2CC[C@@H](NC(=S)NCCN3CCCCC3)CC2)nc2ccccc12 [compound 395], which class is on record?
**A.** 3 (Class 3: The value of percent of control at 10^−7 M was more than 60% or the value of IC50 was more than 200 nM.)

**Q.** How did the class turn out when CN(C)c1nc(N[C@H]2CC[C@@H](NC(=S)NCc3cccnc3)CC2)nc2ccccc12 [compound 396] was run?
**A.** 3 (Class 3: The value of percent of control at 10^−7 M was more than 60% or the value of IC50 was more than 200 nM.)

**Q.** How did the class turn out when CN(C)c1nc(N[C@H]2CC[C@@H](NC(=S)Nc3ccc(-n4cccn4)cc3)CC2)nc2ccccc12 [compound 397] was run?
**A.** 3 (Class 3: The value of percent of control at 10^−7 M was more than 60% or the value of IC50 was more than 200 nM.)

**Q.** CN(C)c1nc(N[C@H]2CC[C@@H](NC(=S)Nc3cccc4nsnc34)CC2)nc2ccccc12 [compound 398] was tested. Which class did it give?
**A.** 3 (Class 3: The value of percent of control at 10^−7 M was more than 60% or the value of IC50 was more than 200 nM.)

**Q.** With CN(C)c1nc(N[C@H]2CC[C@@H](NC(=S)Nc3ccc4nsnc4c3)CC2)nc2ccccc12 [compound 399] as the compound, how does the class read?
**A.** 3 (Class 3: The value of percent of control at 10^−7 M was more than 60% or the value of IC50 was more than 200 nM.)

**Q.** Cc1noc(C)c1NC(=S)N[C@H]1CC[C@@H](Nc2nc(N(C)C)c3ccccc3n2)CC1 [compound 400] was tested. Which class did it give?
**A.** 3 (Class 3: The value of percent of control at 10^−7 M was more than 60% or the value of IC50 was more than 200 nM.)

**Q.** With CN(C)c1nc(N[C@H]2CC[C@@H](NC(=S)Nc3ccc(-c4cnco4)cc3)CC2)nc2ccccc12 [compound 401] as the compound, how does the class read?
**A.** 3 (Class 3: The value of percent of control at 10^−7 M was more than 60% or the value of IC50 was more than 200 nM.)

**Q.** Which class does the source give for Cc1onc(-c2ccccc2)c1NC(=S)N[C@H]1CC[C@@H](Nc2nc(N(C)C)c3ccccc3n2)CC1 [compound 402, N-(cis-4-{[4-(dimethylamino)quinazolin-2-yl]amino}cyclohexyl)-N′-(5-methyl-3-phenylisoxazol-4-yl)thiourea] here?
**A.** 1 (Class 1: The value of percent of control at 10^−7 M was less than 40% or the value of IC50 was less than 50 nM.)

**Q.** CN(C)c1nc(N[C@H]2CC[C@@H](NC(=S)Nc3ccc(N4CCOCC4)nc3)CC2)nc2ccccc12 [compound 403] was tested. Which class did it give?
**A.** 3 (Class 3: The value of percent of control at 10^−7 M was more than 60% or the value of IC50 was more than 200 nM.)

**Q.** Which class does the source give for CN(C)c1nc(N[C@H]2CC[C@@H](NC(=S)Nc3ccc(Oc4ccccc4)nc3)CC2)nc2ccccc12 [compound 404] here?
**A.** 3 (Class 3: The value of percent of control at 10^−7 M was more than 60% or the value of IC50 was more than 200 nM.)

**Q.** For CC(=O)c1cccc(NC(=O)NC[C@H]2CC[C@@H](Nc3nc(N(C)C)c4ccccc4n3)CC2)c1 [compound 405], which class is on record?
**A.** 3 (Class 3: The value of percent of control at 10^−7 M was more than 60% or the value of IC50 was more than 200 nM.)

**Q.** Which class does the source give for CC(=O)c1ccc(NC(=O)NC[C@H]2CC[C@@H](Nc3nc(N(C)C)c4ccccc4n3)CC2)cc1 [compound 407] here?
**A.** 3 (Class 3: The value of percent of control at 10^−7 M was more than 60% or the value of IC50 was more than 200 nM.)

**Q.** Which class does the source give for CN(C)c1nc(N[C@H]2CC[C@@H](CNC(=O)NC(=O)c3ccccc3)CC2)nc2ccccc12 [compound 408] here?
**A.** 3 (Class 3: The value of percent of control at 10^−7 M was more than 60% or the value of IC50 was more than 200 nM.)

**Q.** How did the class turn out when CN(C)c1nc(N[C@H]2CC[C@@H](CNC(=O)Nc3cc(C(F)(F)F)cc(C(F)(F)F)c3)CC2)nc2ccccc12 [compound 409] was run?
**A.** 3 (Class 3: The value of percent of control at 10^−7 M was more than 60% or the value of IC50 was more than 200 nM.)

**Q.** For CN(C)c1nc(N[C@H]2CC[C@@H](CNC(=O)NCc3ccccc3)CC2)nc2ccccc12 [compound 410], which class is on record?
**A.** 3 (Class 3: The value of percent of control at 10^−7 M was more than 60% or the value of IC50 was more than 200 nM.)
